From patent publication US7815942B2, “Rasagiline formulations of improved content uniformity” (Teva Pharmaceutical Industries, Ltd., priority 2005, dated 2010)
Where two headings read alike, the source gives them in different places. One block for each molecule: values may come before it.

Columns and labels:
[1] = 18-year study, subjects, cited from earlier work
[2] = Particle size distribution by Malvern laser diffraction (Mastersizer S); format: physicochemical; details: average of two measurements
Procedure: Many analytical tools are available to determine PSD. In the early development stage, the analysis of PSD was performed through microscopic and sieve analysis. Laser diffraction was chosen as the final analytical method for measuring the PSD. Because the large particles were of major concern, the important characteristics of the PSD were the d(0.9), which is the size, in microns, below which 90% of the particles by volume are found, and the d(0.1), which is the size, in microns, below which 10% of the particles by volume are found.
R(+)PAI mesylate samples before milling contain large, irregular, plate-shaped particles of various sizes (See FIG. 1). PSDs of four different batches were measured before milling and after milling. The PSDs were measured using Malvern Laser Diffraction, using the Mastersizer S model. Laser diffraction relies on the fact that diffraction angle of light is inversely proportional to particle size. Properties of particles are measured and interpreted as measurements of a sphere (a sphere being the only shape that can be described by one unique number). In addition, laser diffraction calculates a particle size distribution based around volume terms, thus eliminating particle count from the determination of particle size. The Masterizer S model measures particles using a single technique and a single range setting.
The values in the table represent averages of two measurements. Each measurement was taken after 3 minutes of recirculation with the speed control at the 14 hour position. The dilution medium was a 1% solution of dioctyl sulfosuccinate sodium salt in n-hexane. The concentration of drug substance used in the measurements was between 0.05% and 0.35% by volume. The results were confirmed with microscopic observation. For optical microscopy, an emulsion or suspension, diluted or undiluted, was mounted on a slide or ruled cell. The microscope eyepiece was fitted with a micrometer by which the size of the particles may be estimated.
D(0.1) is the particle size, in microns, below which 10% by volume distribution of the population is found, and d(0.9) is the particle size, in microns, below which 90% by volume distribution of the population is found. […]

[3] = compared with the microcrystalline form; cited from earlier work

SMILES: O=C1CN(/N=C/c2ccc([N+](=O)[O-])o2)C(=O)N1 [microcrystalline form, Nitrofurantoin]
negative side effects (adverse events) such as nausea and gastro-intestinal problems [1]: produces negative side effects

SMILES: C#CCN[C@@H]1CCc2ccccc21.CS(=O)(=O)O [Batch D211/212]
d (0.1) after milling ([2]; listed as D211/212): 16 microns | d (0.9) after milling ([2]; listed as D211/212): 189 microns | d (0.1) before milling ([2]; listed as D211/212): 104 microns | d (0.9) before milling ([2]; listed as D211/212): 598 microns

SMILES: O=C1CN(/N=C/c2ccc([N+](=O)[O-])o2)C(=O)N1 [macrocrystalline form of Nitrofurantoin, Nitrofurantoin]
negative side effects (adverse events) such as nausea and gastro-intestinal problems ([1]; listed as macrocrystalline form): did not manifest | dissolution and absorption rates [3]: slower | serum concentrations [3]: lower | time to achieve peak concentration in urine [3]: takes longer

The next lines start with the values.

d (0.1) after milling ([2]; listed as D297/297): 11 microns | d (0.9) after milling ([2]; listed as D297/297): 160 microns | d (0.1) before milling ([2]; listed as D297/297): 20 microns | d (0.9) before milling ([2]; listed as D297/297): 386 microns
SMILES: C#CCN[C@@H]1CCc2ccccc21.CS(=O)(=O)O [Batch D297/297]

d (0.1) after milling ([2]; listed as D197/197): 14 microns | d (0.9) after milling ([2]; listed as D197/197): 168 microns | d (0.1) before milling ([2]; listed as D197/197): 21 microns | d (0.9) before milling ([2]; listed as D197/197): 443 microns
SMILES: C#CCN[C@@H]1CCc2ccccc21.CS(=O)(=O)O [Batch D197/197]

d (0.1) after milling ([2]; listed as D222/223): 10 microns | d (0.9) after milling ([2]; listed as D222/223): 156 microns | d (0.1) before milling ([2]; listed as D222/223): 18 microns | d (0.9) before milling ([2]; listed as D222/223): 573 microns
SMILES: C#CCN[C@@H]1CCc2ccccc21.CS(=O)(=O)O [Batch D222/223]
